Reference: US5508174A, “Method and micro roller bottle for in vitro exposure of cells to volatile chemicals” (The United States of America as represented by the …, priority 1993, dated 1996)

Tested on: Primary hepatocytes
Assay: in vitro exposure of primary hepatocytes to volatile HCFCs, enzyme leakage (LDH and AST)
Assay type: cell-based
Conditions: 10,000, 100,000 and 500,000 ppm, 24 hours
Description: Any adherent cell line or adherent primary cell type can be used in this system. Adherent cell lines may attach to glass walls, i.e., the inner surface of a glass body 10. When cells reach confluency, exposure can bc initiated. […] This can be accomplished by attaching primary cells to a sterile strip of inert mesh 38, e.g., nylon mesh, precoated with an attachment factor such as collagen. The mesh is carefully rolled and placed into body 10 through one of the openings 14 or 16. After the mesh is unrolled within body 10, the openings 14 and 1.6 are sealed using the septa or the valve 22 previously described.
The cells to be tested are washed and isolated using known procedures. The washed isolated cells are resuspended at a suitable cell density, e.g., about 10^6 to 10^7 /ml, in a suitable culture medium, e.g., Williams E or Leibovitz's-15. The culture medium may be supplemented with a suitable media supplement, e.g., fetal calf serum, dexamethasone, etc. The suspended cells are distributed over the mesh or over the inner surface of device 10. The cells are allowed to attach for a suitable period. If the mesh is used, it is rolled into a narrow tube, inserted into device 10 and allowed to unroll. Culture medium is added to the device 10 to a desired quantity. Scaling means 18 and 20 are inserted into openings 14 and 16. […]
A syringe needle is inserted through one of the sealing means 18 or 20 to provide egress for excess atmosphere within device 10. […] A sample of the atmosphere within device 10 is taken from each device prepared for testing and analyzed by gas-chromatography (GC) to determine the actual concentration of the volatile compound in the device.
The thus-prepared test device is placed on a roller apparatus in an incubator at a suitable temperature. […] At the termination exposure, a second sample of the atmosphere should be taken and analyzed by GC to ensure that the volatile compound is present at a concentration of at least about 95% of that measured initially. […]

Row | Compound | relative rank ordering of toxicity, based on lactate dehydrogenase (LDH) and S-amino-transferase (AST) enzyme leakages
1 | CC(F)(F)Cl [HCFC-142b, 1-chloro-1,1-difluoroethane] | HCFC-123>HCFC-123/142b>HCFC-124>HCFC-142b
2 | FC(Cl)C(F)(F)F (stereo not drawn) [HCFC-124, 1-chloro-1,2,2,2-trifiuoroethane] | HCFC-123>HCFC-123/142b>HCFC-124>HCFC-142b
3 | FC(F)(F)C(Cl)Cl [HCFC-123, 2,2-dichloro-1,1,1-trifluoroethane] | HCFC-123>HCFC-123/142b>HCFC-124>HCFC-142b
